Structures can show the parent of a compound that is named as a salt. Where two headings read alike, the source gives them in different places.

For series [1] the following is noted: cited from earlier work; for binary class (HP*): based on human potency [41] where available, otherwise according to CLP; for HP: human potency, chemicals of random forest training and test set; for Human potency [41]: test set.
The conditions of series [2]: cited from earlier work; for binary class: sens / non-sens; for true CLP: test set.
Series [3] relates to myeloid cell line derived from MUTZ-3. In words: GARD random forest model predicting CLP categories (52 transcripts, Example A). As to conditions: test set; for GARD predicted CLP: majority voting across replicates; for predicted CLP: separate replicates.
For series [4] the test system is unchanged. Description: Cytotoxicity / viability by flow cytometry (propidium iodide), 24 hours exposure. As to conditions: yes/no; MUTZ-3 derived cells. (A flow cytometer gives signals particle by particle.)
The test system is the same in series [5]. In words: GARD binary classification (SVM on GARD prediction signature, 200 transcripts). As to conditions: Table 8 chemical list; GARD SVM decision value.
Setting [6] is: chemicals of random forest training and test set.
Setting [7] is: Table 9, chemicals training set.
The mark [8] stands for this setting: CLP annotation of 37 novel chemicals.

As to `CCCCBr` [1-brombutane, 1-bromobutane], the “binary class (HP*)” value in series [1] is “NS (5-6 = NS)”. For the same compound, the CLP entry in series [2] (Table 10, chemicals test set 1) is on record as “no cat”; in series [2] (setting [6]) it was “no cat”. In addition, in series [2] (setting [6]), the binary class entry is reported as “non-sens”. The “true CLP” value in series [2] (per replicate line) and in series [2] was “no cat” in each case. Moreover, the “GARD predicted CLP” value in series [3] is “no cat”. In series [3], the “predicted CLP” value was “no cat”.

`CC=Cc1ccc(OC)cc1` [anethole]: in series [1], the “binary class (HP*)” value is listed as “NS (5-6 = NS)”, the HP was 5 and the “Human potency [41]” value is recorded as 5. Also, in series [3], the “GARD predicted CLP” value is 1B and the “predicted CLP” value is 1B.

`O=C(O)c1ccccc1` [benzoic acid]: the “binary class (HP*)” value in series [1] was “NS (5-6 = NS)”. Further, in series [2] (Table 10, chemicals test set 1), the CLP result is “no cat”. Further, in series [2] (setting [6]), the CLP result is “no cat” and the binary class entry was “non-sens”. For the same compound, in series [2] (per replicate line), the “true CLP” value was “no cat”. Moreover, the “true CLP” value in series [2] is “no cat”. In addition, in series [3], the “GARD predicted CLP” value is given as “no cat” and the “predicted CLP” value is “no cat”.

As to `OCc1ccccc1` [benzyl alcohol], in series [4], the cytotox result is on record as “no”. Further, the “binary class (HP*)” value in series [1] is given as “NS (5-6 = NS)”. Further, in series [2] (setting [7]), the CLP result is “no cat”. In addition, in series [2] (setting [6]), the CLP entry is on record as “no cat” and the binary class entry is reported as “non-sens”.

Turning to `O=C(O)CC(O)(CC(=O)O)C(=O)O` [citric acid], the cytotox entry in series [4] is recorded as “no”.

Take `OCCNCCO` [diethanolamine]: in series [4], the cytotox result is given as “no”. Further, in series [1], the “binary class (HP*)” value is on record as “NS (5-6 = NS)” and the HP is listed as 5. Further, the CLP in series [2] (setting [8]) is 1B. In addition, the CLP in series [2] (setting [7]) is on record as 1B. In series [2] (setting [6]), the CLP is 1B and the binary class result is recorded as “sens”.

Regarding `CCOC(=O)/C=C\C(=O)OCC` [diethyl maleate], in series [1], the HP is on record as 2 and the “Human potency [41]” value is 2. Also, in series [2] (Table 10, chemicals test set 1), the CLP is given as 1B. Further, in series [2] (setting [6]), the CLP is given as 1B and the binary class result is on record as “sens”. The “true CLP” value in series [2] (per replicate line) is recorded as 1B. For the same compound, in series [2], the “true CLP” value is recorded as 1B. Also, in series [3], the “GARD predicted CLP” value is listed as 1A and the “predicted CLP” value was 1A.

As for `CCOC(=O)c1ccccc1C(=O)OCC` [diethyl phthalate], the HP in series [1] was 6. Moreover, the CLP entry in series [2] (Table 10, chemicals test set 1) is reported as “no cat”. For the same compound, in series [2] (setting [6]), the CLP result was “no cat” and the binary class entry is on record as “non-sens”. In addition, in series [2] (per replicate line), the “true CLP” value is “no cat”. In addition, in series [2], the “true CLP” value is “no cat”. Further, the “SVM DV” value in series [5] was −2.15. For the same compound, in series [3], the “GARD predicted CLP” value is “no cat” and the “predicted CLP” value is listed as “no cat”.

For the compound `CCCCCCCCCCCCCC(=O)OC(C)C` [isopropyl myristate], the cytotox entry in series [4] is listed as “no”. Moreover, in series [1], the “binary class (HP*)” value was “NS (5-6 = NS)” and the HP is on record as 5. The CLP in series [2] (setting [8]) is on record as 1B. For the same compound, the CLP in series [2] (setting [7]) was 1B. Further, in series [2] (setting [6]), the CLP is 1B and the binary class result is on record as “sens”.

With `Oc1c(Cl)c(Cl)c(Cl)c(Cl)c1Cl` [pentachlorophenol], the cytotox result in series [4] is given as “no”. In series [1], the “binary class (HP*)” value is recorded as “NS (5-6 = NS)” and the HP is 5. In addition, the CLP in series [2] (setting [8]) is listed as 1B. For the same compound, the CLP in series [2] (setting [7]) was 1B. In addition, in series [2] (setting [6]), the CLP is on record as 1B and the binary class entry is on record as “sens”.

Consider `O=C(O)C(O)C(O)C(=O)O` (stereo not shown) [tartaric acid], for which, in series [4], the cytotox entry was “no”.

dextran: the cytotox result in series [4] is listed as “no”. In series [1], the “binary class (HP*)” value is “NS (5-6 = NS)” and the HP is given as 6. The CLP entry in series [2] (setting [7]) is “no cat”. In series [2] (setting [6]), the CLP entry is listed as “no cat” and the binary class result is “non-sens”.

Values taken from US11324787B2, “Analytical methods and arrays for use in the same” (SENZAGEN AB, priority 2017, dated 2022).
